# Molecular target: T1, Sodium-dependent dopamine transporter (Rattus norvegicus, UniProt P23977)
# Assay: Displacement of [3H]GBR-12935 from rat cloned striatal DAT receptor
# Conditions: not given
# T1 sequence (P23977 whole entry): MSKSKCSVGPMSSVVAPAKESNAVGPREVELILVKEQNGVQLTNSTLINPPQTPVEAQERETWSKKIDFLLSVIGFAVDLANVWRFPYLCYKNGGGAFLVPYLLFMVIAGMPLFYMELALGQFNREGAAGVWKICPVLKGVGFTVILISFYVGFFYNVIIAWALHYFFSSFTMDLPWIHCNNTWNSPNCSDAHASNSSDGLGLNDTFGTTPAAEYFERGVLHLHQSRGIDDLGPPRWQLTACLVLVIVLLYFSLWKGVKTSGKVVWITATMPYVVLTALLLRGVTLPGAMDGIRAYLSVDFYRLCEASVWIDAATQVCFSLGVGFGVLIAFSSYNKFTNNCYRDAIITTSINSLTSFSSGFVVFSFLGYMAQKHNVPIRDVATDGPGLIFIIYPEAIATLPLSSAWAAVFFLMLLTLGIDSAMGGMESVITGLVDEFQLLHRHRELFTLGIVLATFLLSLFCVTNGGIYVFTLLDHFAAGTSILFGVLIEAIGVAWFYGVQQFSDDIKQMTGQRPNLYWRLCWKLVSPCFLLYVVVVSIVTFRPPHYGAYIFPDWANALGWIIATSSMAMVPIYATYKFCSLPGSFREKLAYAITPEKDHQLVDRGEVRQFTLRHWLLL
row,SMILES,IC50
1,COC(=O)[C@H]1[C@@H](c2ccc(I)cc2)C[C@@H]2[C@H](C)C[C@H]1N2C,794 nM
2,COC(=O)[C@H]1[C@@H](c2ccc(I)cc2)C[C@H]2N[C@@H]1C[C@H]2C,2450 nM

# Test system: not listed separately
# Assay: Lipophilicity, log D of the compound in octanol-water at pH 7.4 by reverse-phase HPLC analysis
# Conditions: not given
row,SMILES,logD
1,O=[N+]([O-])c1cccc(O)c1 [3-NITRO-PHENOL],2
2,COC(=O)[C@H]1[C@@H](c2ccc(C)cc2)C[C@@H]2CC[C@H]1N2C/C=C/CF,4.1
3,COC(=O)[C@H]1[C@@H](c2ccc(C)cc2)C[C@@H]2CC[C@H]1N2C/C=C/I,4.9
4,Oc1ccc2ccccc2c1 [BETANAPHTHOL],2.7
5,Nc1ccccc1 [ANILINE],0.9
6,COC(=O)[C@H]1[C@@H](c2ccc(C)cc2)C[C@@H]2CC[C@H]1N2C/C=C(\I)C(F)(F)F,5.3
7,ClCc1ccccc1 [(CHLOROMETHYL)BENZENE],2.3
8,COC(=O)[C@H]1[C@@H](c2ccc(C)cc2)C[C@@H]2CC[C@H]1N2C/C(I)=C/C(F)(F)F,5.5
9,c1ccc(-c2ccccc2)cc1 [BIPHENYL],4.01

# Species: Homo sapiens
# Assay: Selectivity ratio of compound Ki for human cloned SERT receptor to Ki for human DAT receptor
# Conditions: not given
row,SMILES,Ratio Ki
1,COC(=O)[C@H]1[C@@H](c2ccc(C)cc2)C[C@@H]2CC[C@H]1N2C/C(I)=C/C(F)(F)F,10000

# Molecular target: T2, Sodium-dependent dopamine transporter (Homo sapiens, UniProt Q01959)
# T2 sequence (Q01959 whole entry): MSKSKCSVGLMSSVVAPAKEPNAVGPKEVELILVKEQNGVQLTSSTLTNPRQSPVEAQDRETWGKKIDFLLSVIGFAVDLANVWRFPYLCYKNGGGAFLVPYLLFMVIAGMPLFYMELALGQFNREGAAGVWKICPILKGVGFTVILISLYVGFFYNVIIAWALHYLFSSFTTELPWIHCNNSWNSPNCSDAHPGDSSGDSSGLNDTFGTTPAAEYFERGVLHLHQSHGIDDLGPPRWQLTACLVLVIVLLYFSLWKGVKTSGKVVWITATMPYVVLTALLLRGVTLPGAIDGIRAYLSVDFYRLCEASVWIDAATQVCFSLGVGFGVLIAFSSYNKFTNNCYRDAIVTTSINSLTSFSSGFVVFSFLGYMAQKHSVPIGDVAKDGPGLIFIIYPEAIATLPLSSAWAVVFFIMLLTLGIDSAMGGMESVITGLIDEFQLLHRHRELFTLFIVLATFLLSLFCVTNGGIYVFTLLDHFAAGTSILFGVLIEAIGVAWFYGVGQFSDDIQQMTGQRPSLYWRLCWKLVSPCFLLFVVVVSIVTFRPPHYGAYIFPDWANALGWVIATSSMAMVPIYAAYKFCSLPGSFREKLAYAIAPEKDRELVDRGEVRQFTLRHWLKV
# Assay: Displacement of [3H]WIN35428 from human cloned DAT receptor expressed in human HEK293 cells
# Assay type: cell-based
# Conditions: read-out: Ki
row,SMILES,Ki
1,COC(=O)[C@H]1[C@@H](c2ccc(C)cc2)C[C@@H]2CC[C@H]1N2C/C=C/I,17 nM
2,COC(=O)[C@H]1[C@@H](c2ccc(C)cc2)C[C@@H]2CC[C@H]1N2C/C=C(\I)C(F)(F)F,116 nM
3,COC(=O)[C@H]1[C@@H](c2ccc(C)cc2)C[C@@H]2CC[C@H]1N2C/C(I)=C/C(F)(F)F,0.87 nM

# Same assay, conditions: read-out: pKi (converted)
row,SMILES,Ki
1,COC(=O)[C@H]1[C@@H](c2ccc(C)cc2)C[C@@H]2CC[C@H]1N2C,32.4 nM
2,O=C(OCCF)[C@H]1[C@@H](c2ccc(/C=C\I)cc2)C[C@@H]2CC[C@H]1N2,13.2 nM
3,CCCc1ccc([C@H]2C[C@@H]3CC[C@H]([C@H]2C(=O)OC)N3C)cc1I,501 nM
4,CCCc1ccc([C@H]2C[C@@H]3CC[C@@H](N3)[C@H]2C(=O)OC)cc1I,501 nM
5,CCc1ccc([C@H]2C[C@@H]3CC[C@H]([C@H]2C(=O)OC)N3C)cc1,501 nM
6,CCc1ccc([C@H]2C[C@@H]3CC[C@@H](N3)[C@H]2C(=O)OC)cc1I,263 nM
7,COC(=O)[C@H]1[C@@H](c2ccc(I)cc2)C[C@@H]2CC[C@H]1N2C,35.5 nM
8,COC(=O)[C@H]1[C@@H](c2ccc(I)cc2)C[C@@H]2CC[C@H]1N2Cc1ccccc1,41.7 nM
9,O=C(OCCF)[C@H]1[C@@H](c2cccc(/C=C\I)c2)C[C@@H]2CC[C@H]1N2,89.1 nM
10,C=C(Br)CN1[C@H]2CC[C@@H]1[C@@H](C(=O)OC)[C@@H](c1ccc(I)cc1)C2,30.2 nM
11,C[C@H](CF)OC(=O)[C@H]1[C@@H](c2ccc(Cl)cc2)C[C@@H]2CC[C@H]1N2C,3.24 nM
12,CCCCc1ccc([C@H]2C[C@@H]3CC[C@@H](N3)[C@H]2C(=O)OC)cc1I,372 nM
13,COC(=O)[C@H]1[C@@H](c2ccc(C)cc2)C[C@@H]2CC[C@H]1N2C/C=C/I,17 nM
14,COC(=O)[C@H]1[C@@H](c2ccc(C)c(I)c2)C[C@@H]2CC[C@H]1N2,112 nM
15,COC(=O)[C@H]1[C@@H](c2ccc(C(C)C)c(I)c2)C[C@@H]2CC[C@H]1N2,501 nM
16,COC(=O)[C@H]1[C@@H](c2ccc(F)cc2)C[C@@H]2CC[C@H]1N2CCF,70.8 nM
17,COC(=O)[C@H]1[C@@H](c2ccc(Cl)c(Cl)c2)C[C@@H]2CC[C@H]1N2C,6.31 nM
18,CN1[C@@H]2CC[C@H]1[C@H](C(=O)OCc1ccccc1)[C@@H](OC(c1ccc(F)cc1)c1ccc(F)cc1)C2,49 nM
19,C[C@@H](CF)OC(=O)[C@H]1[C@@H](c2ccc(Cl)cc2)C[C@@H]2CC[C@H]1N2C,0.676 nM
20,COC(=O)[C@H]1[C@@H](c2ccc(I)cc2)C[C@@H]2CC[C@H]1N2C/C=C/CF,0.501 nM
21,CCCc1ccc([C@H]2C[C@@H]3CC[C@H]([C@H]2C(=O)OC)N3C/C=C/I)cc1,372 nM
22,COC(=O)[C@H]1[C@@H](c2ccccc2)C[C@@H]2CC[C@H]1N2C/C=C/I,115 nM
23,COC(=O)[C@H]1[C@@H](c2ccccc2)C[C@@H]2CC[C@H]1N2C [TROPARIL],33.1 nM

row,SMILES,Ki
1,COC(=O)[C@H]1[C@@H](c2ccc(C(C)C)cc2)C[C@@H]2CC[C@H]1N2C/C=C/I,372 nM
2,Cc1ccc([C@H]2C[C@@H]3CC[C@H]([C@H]2C(=O)OCCF)N3C/C=C/I)cc1,12 nM
3,CCCc1ccc([C@H]2C[C@@H]3CC[C@H]([C@H]2C(=O)OC)N3C)cc1,501 nM
4,COC(=O)[C@H]1[C@@H](c2ccc(I)cc2)C[C@@H]2CC[C@H]1N2CCCF [IOFLUPANE],28.2 nM
5,CN1[C@H]2CC[C@@H]1[C@@H](C(=O)OCCc1ccc(N=[N+]=[N-])c(I)c1)[C@@H](c1ccc(Cl)cc1)C2,14.1 nM
6,CCc1ccc([C@H]2C[C@@H]3CC[C@H]([C@H]2C(=O)OC)N3C)cc1I,339 nM
7,CCCCc1ccc([C@H]2C[C@@H]3CC[C@H]([C@H]2C(=O)OC)N3C)cc1,501 nM
8,COC(=O)[C@H]1[C@@H](c2ccc(F)cc2)C[C@@H]2CC[C@H]1N2CCCF,47.9 nM
9,COC(=O)[C@H]1[C@@H](c2ccc(I)cc2)C[C@@H]2CC[C@H]1N2C/C=C/I,30.2 nM
10,C/C=C/CN1[C@H]2CC[C@@H]1[C@@H](C(=O)OC)[C@@H](c1ccc(I)cc1)C2,15.1 nM
11,CC(C)OC(=O)[C@H]1[C@@H](c2ccc(Cl)c(Cl)c2)C[C@@H]2CC[C@H]1N2C,18.2 nM
12,COC(=O)[C@H]1[C@@H](c2ccc(I)cc2)C[C@@H]2CC[C@H]1N2Cc1ccccc1C,93.3 nM
13,C#CCN1[C@H]2CC[C@@H]1[C@@H](C(=O)OC)[C@@H](c1ccc(I)cc1)C2,14.1 nM
14,COC(=O)[C@H]1[C@@H](c2ccc(C(C)C)c(I)c2)C[C@@H]2CC[C@H]1N2C,501 nM
15,COC(=O)[C@H]1[C@@H](c2ccc(C(C)C)cc2)C[C@@H]2CC[C@H]1N2C,501 nM
16,COC(=O)[C@H]1[C@@H](c2ccc(Cl)c(Cl)c2)C[C@@H]2CC[C@H]1N2C/C=C/I,28.8 nM
17,CN1[C@H]2CC[C@@H]1[C@@H](C(=O)OCCc1ccccc1)[C@@H](c1ccc(Cl)c(Cl)c1)C2,11 nM
18,CN1[C@H]2CC[C@@H]1[C@@H](C(=O)OCc1ccccc1)[C@@H](c1ccc(Cl)c(Cl)c1)C2,34.7 nM
19,COC(=O)[C@H]1[C@@H](c2ccc(C)c(I)c2)C[C@@H]2CC[C@H]1N2C,46.8 nM
20,O=C(OCCF)[C@H]1[C@@H](c2cccc(/C=C/I)c2)C[C@@H]2CC[C@H]1N2,275 nM
21,CC(C)OC(=O)[C@@H]1[C@@H](OC(c2ccc(F)cc2)c2ccc(F)cc2)C[C@H]2CC[C@@H]1N2C,30.9 nM
22,COC(=O)[C@H]1[C@@H](c2ccc(F)cc2)C[C@@H]2CC[C@H]1N2C/C=C/CF,9.55 nM
23,CCCCc1ccc([C@H]2C[C@@H]3CC[C@H]([C@H]2C(=O)OC)N3C)cc1I,372 nM

# Molecular target: T1, Sodium-dependent dopamine transporter
# Assay: Displacement of [3H]WIN35428 from rat cloned striatal DAT receptor
# Conditions: not given
SMILES,pIC50,IC50
CCOc1ccc([C@H]2C[C@@H]3CC[C@H]([C@H]2C(=O)OC)N3C)cc1,7.04,
COc1ccc([C@H]2C[C@@H]3CC[C@H]([C@H]2C(=O)OC(C)C)N3C)cc1,7.85,
COC(=O)C1C2CCC(CC1c1ccc(Cl)c(Cl)c1)O2 (stereo not given),,9.77 nM
Cc1ccc([C@H]2C[C@@H]3CC[C@H]([C@H]2C(=O)OC/C=C\I)N3C)cc1,,39.8 nM
CN1[C@H]2CC[C@@H]1[C@@H](c1nc(-c3ccccc3)no1)[C@@H](c1ccc(Cl)cc1)C2,,794 nM
COC(=O)C1C2CCC(C2)CC1c1ccc(Cl)c(Cl)c1 (stereo not given),,3.31 nM
COC(=O)[C@H]1[C@@H](c2ccccc2)C[C@@H]2CC[C@H]1N2CC#CCF,,3.02 nM
CCOC(=O)[C@H]1[C@@H](c2ccc(C)cc2)C[C@@H]2CC[C@H]1N2Cc1ccc(F)cc1,,29.5 nM
Cc1ccc([C@H]2C[C@@H]3CC[C@H]([C@H]2C(=O)OC/C=C/I)N3C)cc1,,191 nM
CN1[C@H]2CC[C@@H]1[C@@H](c1nnc(-c3ccccc3)o1)[C@@H](c1ccc(Cl)cc1)C2,,2450 nM
CCOC(=O)[C@H]1[C@@H](c2ccc(Cl)cc2)C[C@@H]2CC[C@H]1N2Cc1ccc(F)cc1,,7.08 nM

# Molecular target: Sodium-dependent serotonin transporter (Homo sapiens, UniProt P31645)
# Sequence (P31645 whole entry): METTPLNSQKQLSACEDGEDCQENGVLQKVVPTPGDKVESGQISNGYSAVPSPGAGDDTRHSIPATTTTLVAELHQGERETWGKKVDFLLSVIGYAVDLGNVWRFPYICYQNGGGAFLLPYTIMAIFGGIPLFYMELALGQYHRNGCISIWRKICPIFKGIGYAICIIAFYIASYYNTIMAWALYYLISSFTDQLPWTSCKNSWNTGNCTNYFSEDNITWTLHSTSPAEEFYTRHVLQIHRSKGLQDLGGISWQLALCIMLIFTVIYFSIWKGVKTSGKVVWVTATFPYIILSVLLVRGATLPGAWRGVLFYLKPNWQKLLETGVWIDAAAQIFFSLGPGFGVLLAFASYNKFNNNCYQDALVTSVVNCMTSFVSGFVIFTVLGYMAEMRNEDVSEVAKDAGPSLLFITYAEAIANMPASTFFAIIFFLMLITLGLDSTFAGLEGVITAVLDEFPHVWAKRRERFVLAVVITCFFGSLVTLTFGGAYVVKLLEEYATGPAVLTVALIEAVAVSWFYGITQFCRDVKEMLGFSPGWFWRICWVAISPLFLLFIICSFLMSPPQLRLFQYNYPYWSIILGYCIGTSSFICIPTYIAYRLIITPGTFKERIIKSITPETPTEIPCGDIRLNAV
# Assay: Displacement of [3H]Citalopram from human cloned SERT receptor expressed in HEK293 cells
# Assay type: cell-based
# Conditions: not given
row,SMILES,Ki
1,COC(=O)[C@H]1[C@@H](c2ccc(C)cc2)C[C@@H]2CC[C@H]1N2C/C=C(\I)C(F)(F)F,251 nM
2,COC(=O)[C@H]1[C@@H](c2ccc(C)cc2)C[C@@H]2CC[C@H]1N2C/C(I)=C/C(F)(F)F,> 1000 nM

# Species: Homo sapiens
# Assay: Selectivity ratio of compound Ki for human cloned NET receptor to Ki for human DAT receptor
# Conditions: not given
row,SMILES,Ratio Ki
1,COC(=O)[C@H]1[C@@H](c2ccc(C)cc2)C[C@@H]2CC[C@H]1N2C/C(I)=C/C(F)(F)F,216

# Molecular target: T2, Sodium-dependent dopamine transporter
# Assay: Ratio of LBT999 Ki to compound Ki for human cloned DAT receptor
# Conditions: not given
row,SMILES,Ratio Ki
1,COC(=O)[C@H]1[C@@H](c2ccc(C)cc2)C[C@@H]2CC[C@H]1N2C/C(I)=C/C(F)(F)F,10

# Molecular target: Sodium-dependent noradrenaline transporter (Homo sapiens, UniProt P23975)
# Sequence (P23975 whole entry): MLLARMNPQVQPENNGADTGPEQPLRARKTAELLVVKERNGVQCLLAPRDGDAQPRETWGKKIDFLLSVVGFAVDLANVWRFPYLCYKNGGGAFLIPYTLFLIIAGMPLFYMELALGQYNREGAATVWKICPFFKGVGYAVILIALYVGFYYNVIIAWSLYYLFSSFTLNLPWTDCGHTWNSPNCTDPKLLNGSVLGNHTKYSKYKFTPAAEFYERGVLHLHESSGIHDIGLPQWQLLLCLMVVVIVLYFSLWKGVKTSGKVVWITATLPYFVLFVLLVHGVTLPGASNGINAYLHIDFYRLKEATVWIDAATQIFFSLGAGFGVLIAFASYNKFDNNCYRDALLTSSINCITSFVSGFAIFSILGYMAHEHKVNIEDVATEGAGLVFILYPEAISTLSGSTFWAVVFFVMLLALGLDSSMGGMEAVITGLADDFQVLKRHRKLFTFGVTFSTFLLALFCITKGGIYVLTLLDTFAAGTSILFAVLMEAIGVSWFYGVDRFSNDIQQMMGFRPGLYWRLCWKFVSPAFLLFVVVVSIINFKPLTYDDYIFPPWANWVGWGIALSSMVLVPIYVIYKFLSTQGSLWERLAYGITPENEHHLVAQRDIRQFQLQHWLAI
# Assay: Displacement of [3H]nisoxetine from human cloned NET receptor expressed in HEK293 cells
# Assay type: cell-based
# Conditions: not given
row,SMILES,Ki
1,COC(=O)[C@H]1[C@@H](c2ccc(C)cc2)C[C@@H]2CC[C@H]1N2C/C=C/I,> 500 nM
2,COC(=O)[C@H]1[C@@H](c2ccc(C)cc2)C[C@@H]2CC[C@H]1N2C/C=C(\I)C(F)(F)F,426 nM
3,COC(=O)[C@H]1[C@@H](c2ccc(C)cc2)C[C@@H]2CC[C@H]1N2C/C(I)=C/C(F)(F)F,188 nM

# Molecular target: T2, Sodium-dependent dopamine transporter
# Assay: Ratio of PE2I Ki to compound Ki for human cloned DAT receptor
# Conditions: not given
row,SMILES,Ratio Ki
1,COC(=O)[C@H]1[C@@H](c2ccc(C)cc2)C[C@@H]2CC[C@H]1N2C/C(I)=C/C(F)(F)F,20

# — ChEMBL document CHEMBL1944569, “QSAR study and synthesis of new phenyltropanes as ligands of the dopamine transporter (DAT)” (Bioorg Med Chem, 2012)
